# Measurements published in patent publication US8796328B2, “TRPV1 antagonists” (AbbVie Inc., priority 2012, dated 2014).
# What was measured:
# [1] = target: T1, human TRPV1 receptor (hTRPV1) (Homo sapiens (Human), UniProt Q8NER1); test: Capsaicin activation assay (FLIPR intracellular Ca2+); type: cell-based; conditions: inhibition of capsaicin-induced intracellular Ca2+ increase; compounds added 3 minutes prior to capsaicin; read-out: hTRPV1 cap. IC50
# Protocol: Dulbecco's modified Eagle medium (D-MEM) (with 4.5 mg/mL glucose) and fetal bovine serum were obtained from Hyclone Laboratories, Inc. (Logan, Utah). Dulbecco's phosphate-buffered saline (D-PBS) (with 1 mg/mL glucose and 3.6 mg/l Na pyruvate, without phenol red), L-glutamine, hygromycin B, and Lipofectamine® were obtained from Life Technologies (Grand Island, N.Y.). G418 sulfate was obtained from Calbiochem-Novabiochem Corp. (San Diego, Calif.). Capsaicin (8-methyl-N-vanillyl-6-nonenamide) was obtained from Sigma-Aldrich, Co. (St. Louis, Mo.). Fluo-4 AM (N-[4-[6-[(acetyloxy)methoxy]-2,7-difluoro-3-oxo-3H-xanthen-9-yl]-2-[2-[2-[bis[2-[(acetyloxy)methoxy]-2-oxyethyl]amino]-5-methylphenoxy]ethoxy]phenyl]-N-[2-[(acetyloxy)methoxy]-2-oxyethyl]-glycine, (acetyloxy)methyl ester) was purchased from Molecular Probes (Eugene, Oreg.).
# (§1) The cDNAs for the human TRPV1 receptor (hTRPV1) were isolated by reverse transcriptase-polymerase chain reaction (RT-PCR) from human small intestine poly A+ RNA supplied by Clontech (Palo Alto, Calif.) using primers designed surrounding the initiation and termination codons identical to the published sequences (Hayes et al. Pain 2000, 88, 205-215). The resulting cDNA PCR products were subcloned into pCIneo mammalian expression vector (Promega) and fully sequenced using fluorescent dye-terminator reagents (Prism, Perkin-Elmer Applied Biosystems Division) and a Perkin-Elmer Applied Biosystems Model 373 DNA sequencer or Model 310 genetic analyzer. Expression plasmids encoding the hTRPV1 cDNA were transfected individually into 1321N1 human astrocytoma cells using Lipofectamine®. Forty-eight hours after transfection, the neomycin-resistant cells were selected with growth medium containing 800 μg/mL Geneticin (Gibco BRL). Surviving individual colonies were isolated and screened for TRPV1 receptor activity. Cells expressing recombinant homomeric TRPV1 receptors were maintained at 37° C. in D-MEM containing 4 mM L-glutamine, 300 μg/mL G418 (Cal-biochem) and 10% fetal bovine serum under a humidified 5% CO2 atmosphere.
# The functional activity of compounds at the TRPV1 receptor was determined by measurement of intracellular Ca^2+ levels ([Ca^2]i) using the Fluorescence Imaging Plate Reader (FLIPR)^TETRA®. All compounds were tested over a 12-point one-third-log concentration range. Compound stocks, 10 mM, were prepared in DMSO, and diluted serially across a 384-well plate using a Bravo BenchCel workstation (Agilent Technologies, Santa Clara, Calif.). A stock concentration of capsaicin (10 mM) was made in DMSO, and diluted in D-PBS to a final concentration of 200 nM (4×). On the day prior to the experiment, recombinant HEK293 cells that stably express either human or rat TRPV1 (hTRPV1-3) were removed from tissue culture flasks and plated in growth medium into black-walled clear-bottom 384-well Biocoat™ poly-D-lysine assay plates (BD Biosciences, Bedford, Mass.) using a Multidrop® dispenser (ThermoScientific, Waltham, Mass.). On the day of the experiment, growth medium was removed, and the no-wash FLIPR® Calcium-4 dye (λEX=470-495 nm, λEM=515-575 nm; Molecular Devices, Sunnyvale, Calif.) was added to each well using the Multidrop® dispenser. Cells were incubated for 90-120 minutes in the dark at room temperature. Test compounds were added to the cells 3 minutes prior to the addition of 200 nM capsaicin (4×), and the final assay volume was 80 μL. Fluorescence readings were made at 1 to 5 second intervals over the course of the experimental run. The peak increase in relative fluorescence units (minus baseline) was calculated, and expressed as a percentage of the 50 nM capsaicin (control) response. Curve-fits of the data were solved using a four-parameter logistic Hill equation in GraphPad Prism® (GraphPad Software, Inc., San Diego, Calif.), and IC50 values (concentration of the test compounds that inhibits 50% of the intracellular Ca^2+ concentration increase induced by capasin) were calculated.
# [2] = target: T1, human TRPV1 receptor (hTRPV1); test: Acid activation assay (pH 5.0, FLIPR intracellular Ca2+); type: cell-based; conditions: 37.5 μM compound, percentage of the maximal pH 5.0-induced response remaining; for remaining activity at 37.5 µM: read-out: hTRPV1 H+ (max % remain)
# Protocol: Dulbecco's modified Eagle's medium (DMEM) with 4.5 mg/mL D-glucose, fetal bovine serum, L-glutamine, and 2-morpholinoethanesulfonic acid (MES) were purchased from Sigma-Aldrich Co. (St. Louis, Mo.). Dulbecco's phosphate-buffered saline (DPBS) with Ca^2+, Mg^2+, and 1 mg/mL D-glucose (pH 7.4), Geneticin®, 0.25% trypsin-1 mM EDTA, and penicillin-streptomycin were purchased from Invitrogen Corp. (Carlsbad, Calif.). The FLIPR® Calcium 4 assay kit was purchased from Molecular Devices (Sunnyvale, Calif.).
# as §1, with “DMEM” for “D-MEM”
# The functional activity of compounds at the TRPV1 receptor was determined by measurement of intracellular Ca^2+ levels ([Ca^2+]i) using the Fluorescence Imaging Plate Reader (FLIPR)^TETRA®. All compounds were tested over a 12-point one-half-log concentration range. Compound stocks, 10 mM, were prepared in DMSO, and diluted serially across a 384-well plate using a Bravo BenchCel workstation (Agilent Technologies, Santa Clara, Calif.).
# On the day of the experiment growth medium was removed, and the no-wash FLIPR®Calcium-4 dye (λEX=470-495 nm, λEM=515-575 nm) was added to each well using the Multidrop® dispenser. Cells were incubated for 90-120 minutes in the dark at 25° C. Test compounds were dissolved in DMSO, and plates were prepared using an Agilent Bravo workstation (Agilent Technologies Inc., Santa Clara, Calif.). Compounds were added to the cells 3 minutes prior to the addition of a pH 5.0 solution. Reagents were delivered at a rate of 40 μL/sec, and the final assay volume was 80 μL. Acidic pH solutions were prepared by titration of DPBS/MES with 1 N HCl. The intensity of the fluorescence was captured and digitally transferred to an interfaced PC.
# T1 sequence (Q8NER1 whole entry): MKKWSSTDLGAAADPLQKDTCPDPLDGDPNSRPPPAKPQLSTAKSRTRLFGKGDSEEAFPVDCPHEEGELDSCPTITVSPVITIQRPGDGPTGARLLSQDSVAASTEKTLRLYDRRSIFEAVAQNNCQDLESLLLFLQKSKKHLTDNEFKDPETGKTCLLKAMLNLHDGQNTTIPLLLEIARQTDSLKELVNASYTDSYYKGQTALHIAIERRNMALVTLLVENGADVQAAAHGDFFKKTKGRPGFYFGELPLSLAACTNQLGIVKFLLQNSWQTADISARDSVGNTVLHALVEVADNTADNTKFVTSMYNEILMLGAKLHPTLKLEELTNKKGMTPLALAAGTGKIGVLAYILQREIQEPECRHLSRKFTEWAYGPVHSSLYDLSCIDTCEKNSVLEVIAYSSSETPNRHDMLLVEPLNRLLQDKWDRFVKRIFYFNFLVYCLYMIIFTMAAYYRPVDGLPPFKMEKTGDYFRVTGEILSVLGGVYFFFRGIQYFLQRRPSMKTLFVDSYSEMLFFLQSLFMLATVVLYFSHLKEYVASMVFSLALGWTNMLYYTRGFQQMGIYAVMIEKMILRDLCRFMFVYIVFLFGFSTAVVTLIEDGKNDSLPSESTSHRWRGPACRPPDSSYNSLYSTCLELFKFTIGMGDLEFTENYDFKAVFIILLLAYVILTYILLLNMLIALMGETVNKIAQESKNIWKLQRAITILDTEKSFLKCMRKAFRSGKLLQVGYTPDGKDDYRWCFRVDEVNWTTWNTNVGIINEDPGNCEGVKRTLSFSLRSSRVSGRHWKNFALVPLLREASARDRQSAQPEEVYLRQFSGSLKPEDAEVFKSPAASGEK
Structure (SMILES),IC50 [1] [nM],remaining activity at 37.5 µM [2] [%],hTRPV1 H+ (max % remain) [2] [%]
"C[C@@]1(C(F)F)C[C@@H](NC(=O)NCc2ccc(NS(C)(=O)=O)c(F)c2)c2ccccc2O1 [Example 40, N-{4-[({[(2S,4R)-2-(difluoromethyl)-2-methyl-3,4-dihydro-2H-chromen-4-yl]carbamoyl}amino)methyl]-2-fluorophenyl}methanesulfonamide]",10100,64,–
"C[C@@]1(C(F)(F)F)C[C@@H](NC(=O)NCc2ccc(NS(C)(=O)=O)c(F)c2)c2ccccc2O1 [Example 35, N-{2-fluoro-4-[({[(2S,4R)-2-methyl-2-(trifluoromethyl)-3,4-dihydro-2H-chromen-4-yl]carbamoyl}amino)methyl]phenyl}methanesulfonamide]",2440,25,–
"CS(=O)(=O)Nc1ccc(CNC(=O)N[C@@H]2CCOc3cc(OC(F)(F)F)ccc32)cc1F [Example 26, N-{2-fluoro-4-[({[(4R)-7-(trifluoromethoxy)-3,4-dihydro-2H-chromen-4-yl]carbamoyl}amino)methyl]phenyl}methanesulfonamide]",> 37500,84,–
"CS(=O)(=O)Nc1ccc(CNC(=O)NC2CC3(CCCC3)Oc3ccccc32)cc1F (stereo not drawn) [Example 44, N-(4-{[(3,4-dihydrospiro[chromene-2,1′-cyclopentan]-4-ylcarbamoyl)amino]methyl}-2-fluorophenyl)methanesulfonamide]",1280,42,–
"CS(=O)(=O)Nc1ccc(CNC(=O)N[C@@H]2CCOc3c2cccc3C(F)(F)F)cc1F [Example 31, N-{2-fluoro-4-[({[(4R)-8-(trifluoromethyl)-3,4-dihydro-2H-chromen-4-yl]carbamoyl}amino)methyl]phenyl}methanesulfonamide]",3800,77,–
"CS(=O)(=O)Nc1ccc(CNC(=O)N[C@@H]2CC3(CCC3)Oc3ccc(F)cc32)cc1F [Example 17, N-{2-fluoro-4-[({[(4R)-6-fluoro-3,4-dihydrospiro[chromene-2,1′-cyclobutan]-4-yl]carbamoyl}amino)methyl]phenyl}methanesulfonamide]",3030,69,–

# Further molecules by falling IC50 [1], results first:
IC50 [1] [nM],remaining activity at 37.5 µM [2] [%],hTRPV1 H+ (max % remain) [2] [%],Structure (SMILES)
28700,–,86,"CC1(C)C[C@H](NC(=O)NCc2ccc(NS(C)(=O)=O)c(F)c2)c2cc(F)ccc2O1 [Example 34, N-{2-fluoro-4-[({[(45)-6-fluoro-2,2-dimethyl-3,4-dihydro-2H-chromen-4-yl]carbamoyl}amino)methyl]phenyl}methanesulfonamide]"
16500,91,–,"CS(=O)(=O)Nc1ccc(CNC(=O)N[C@@H]2CCc3cc(F)ccc32)cc1F [Example 4, N-{2-fluoro-4-[({[(1R)-5-fluoro-2,3-dihydro-1H-inden-1-yl]carbamoyl}amino)methyl]phenyl}methanesulfonamide]"
6410,43,–,"CS(=O)(=O)Nc1ccc(CNC(=O)N[C@@H]2CC(CF)(CF)Oc3cc(F)ccc32)cc1F [Example 43, N-{2-fluoro-4-[({[(4R)-7-fluoro-2,2-bis(fluoromethyl)-3,4-dihydro-2H-chromen-4-yl]carbamoyl}amino)methyl]phenyl}methanesulfonamide]"
913,88,–,"CS(=O)(=O)Nc1ccc(CNC(=O)N[C@@H]2CCOc3cc(C(F)(F)F)ccc32)cc1F [Example 32, N-{2-fluoro-4-[({[(4R)-7-(trifluoromethyl)-3,4-dihydro-2H-chromen-4-yl]carbamoyl}amino)methyl]phenyl}methanesulfonamide]"
747,18,–,"CC1(C)C[C@@H](NC(=O)NCc2ccc(NS(C)(=O)=O)c(F)c2)c2ccc(F)cc2O1 [Example 7, N-{2-fluoro-4-[({[(4R)-7-fluoro-2,2-dimethyl-3,4-dihydro-2H-chromen-4-yl]carbamoyl}amino)methyl]phenyl}methanesulfonamide]"
466,82,–,"CCC1(CC)C[C@@H](NC(=O)NCc2ccc(NS(C)(=O)=O)c(F)c2)c2ccc(OC(F)(F)F)cc2O1 [Example 19, N-{4-[({[(4R)-2,2-diethyl-7-(trifluoromethoxy)-3,4-dihydro-2H-chromen-4-yl]carbamoyl}amino)methyl]-2-fluorophenyl}methanesulfonamide]"
418,27,–,"CCC1(CC)C[C@@H](NC(=O)NCc2ccc(NS(C)(=O)=O)c(F)c2)c2cccc(F)c2O1 [Example 13, N-{4-[({[(4R)-2,2-diethyl-8-fluoro-3,4-dihydro-2H-chromen-4-yl]carbamoyl}amino)methyl]-2-fluorophenyl}methanesulfonamide]"
256,64,–,"C[C@@]1(CF)C[C@@H](NC(=O)NCc2ccc(NS(C)(=O)=O)c(F)c2)c2ccc(C(F)(F)F)cc2O1 [Example 37, N-{2-fluoro-4-[({[(2S,4R)-2-(fluoromethyl)-2-methyl-7-(trifluoromethyl)-3,4-dihydro-2H-chromen-4-yl]carbamoyl}amino)methyl]phenyl}methanesulfonamide]"
209,27,–,"CCC1(CC)C[C@@H](NC(=O)NCc2ccc(NS(C)(=O)=O)c(F)c2)c2ccc(Cl)cc2O1 [Example 14, N-{4-[({[(4R)-7-chloro-2,2-diethyl-3,4-dihydro-2H-chromen-4-yl]carbamoyl}amino)methyl]-2-fluorophenyl}methanesulfonamide]"
